The first test relates to Eotaxin-3 (CCL26) release in human whole blood stimulated with IL-4. Briefly: Human whole blood eotaxin-3 assay (IL-4 stimulated eotaxin-3 release). In kind it is cell-based. Conditions: Homo sapiens, 48 h, human whole blood stimulated with recombinant human IL-4, 48 h; given for test compounds with <80% Emax; geometric mean. As to the method: Human Whole Blood Eotaxin-3 Assay
This was a human whole blood assay using recombinant human Interleukin 4 to stimulate the blood and measuring the ability of the test compounds to inhibit eotaxin-3 release. The biological activities of the test compounds have been tested in human whole blood stimulated with IL-4 measuring Eotaxin-3 release. The test compounds were added to 384 well clear flat-bottom plate in a 4-fold serial dilution in triplicates using a liquid handler. Human whole blood stabilized in lithium-heparin tubes was added in a volume of 65 μL per well, resulting in a final DMSO concentration of 0.5%. The plate is incubated for 2 h at 37° C. under 5% CO2/95% air. Subsequently, 5 μL of recombinant human IL-4 (R&D Systems, cat #204-ILB) was added to the wells to a final concentration of […]. The plate was incubated for 48 h at 37° C. under 5% CO2/95% air. The plate was spun down for 10 minutes at 500×g and 20 μL supernatant was harvested and transferred to a 384 well v-bottom plate using a liquid handler and stored at −20° C. until further analysis. 10 μL supernatant was used to measure the level of Eotaxin-3 (CCL26) using Human Eotaxin-3 MSD kit from Mesocsale (Cat #K251UEK-4). The assay was performed according to the manufacture instructions.
The data from the human whole blood eotaxin-3 assay is shown below for Examples 1ab3, 1ab6, 1d23, and 1d4 (where the effect in % is plotted against the test concentration in M on a log-scale).
With `CN(C)C(=O)c1ccc(C2=CCN(Cc3cc4c(-n5ccc6c(c5=O)CCN6)ccnc4n3C)CC2)cn1` [Example 1m70, N,N-dimethyl-1′-((1-methyl-4-(4-oxo-1,2,3,4-tetrahydro-5H-pyrrolo[3,2-c]pyridin-5-yl)-1H-pyrrolo[2,3-b]pyridin-2-yl)methyl)-1′, 2′, 3′, 6′-tetrahydro-[3,4′-bipyridine]-6-carboxamide], the Emax fell in the range of 20 to 30%.

As for `Cc1cc(C(=O)N(C)C)nnc1C1=CCN(Cc2cc3c(-n4ccc5c(c4=O)CCN5)ccnc3n2C)CC1` [Example 1m81, N,N,5-trimethyl-6-(1-((1-methyl-4-(4-oxo-1,2,3,4-tetrahydro-5H-pyrrolo[3,2-c]pyridin-5-yl)-1H-pyrrolo[2,3-b]pyridin-2-yl)methyl)-1,2,3,6-tetrahydropyridin-4-yl)pyridazine-3-carboxamide], the Emax fell in the range of 30 to 40%.

As for `CN(C)C(=O)c1ccc(C2=CCN(Cc3cc4c(-n5ccc6c(c5=O)CCN6)ccnc4n3C)CC2)cc1F` [Example 1m83, 2-fluoro-N,N-dimethyl-4-(1-((1-methyl-4-(4-oxo-1,2,3,4-tetrahydro-5H-pyrrolo[3,2-c]pyridin-5-yl)-1H-pyrrolo[2,3-b]pyridin-2-yl)methyl)-1,2,3,6-tetrahydropyridin-4-yl)benzamide], the Emax was 30 to 40%.

Still in this test, the particulars now being: Homo sapiens, 48 h, human whole blood stimulated with recombinant human IL-4, 48 h; inhibition of eotaxin-3 release; given for test compounds with >80% Emax; geometric mean.
In the case of `CN(C)C(=O)c1ccc(C2CCN(Cc3cc4c(-n5ccc(N)c(C(=O)CCCO)c5=O)ccnc4n3C)CC2)cc1` [Example 1d44, 4-[1-[[4-[4-Amino-3-(4-hydroxybutanoyl)-2-oxo-1-pyridyl]-1-methyl-pyrrolo[2,3-b]pyridin-2-yl]methyl]-4-piperidyl]-N,N-dimethyl-benzamide], the EC50 amounted to 0.307 µM.

In the case of `CNc1ccn(-c2ccnc3c2cc(CN2CC=C(c4c(C)cc(C(=O)N(C)C)cc4F)CC2)n3C)c(=O)c1` [Example 1m56, 3-Fluoro-N,N,5-trimethyl-4-(1-((1-methyl-4-(4-(methylamino)-2-oxopyridin-1 (2H)-yl)-1H-pyrrolo[2,3-b]pyridin-2-yl)methyl)-1,2,3,6-tetrahydropyridin-4-yl)benzamide], the EC50 came to 0.00364 µM.

Consider `CNc1ccn(-c2ccnc3c2cc(CN2CC=C(c4c(C)cc(C(=O)N(C)C)cc4Cl)CC2)n3C)c(=O)c1` [Example 1m57, 3-Chloro-N,N,5-trimethyl-4-(1-((1-methyl-4-(4-(methylamino)-2-oxopyridin-1 (2H)-yl)-1H-pyrrolo[2,3-b]pyridin-2-yl)methyl)-1,2,3,6-tetrahydropyridin-4-yl)benzamide], for which the EC50 is 0.027 µM.

Regarding `CNc1ccn(-c2ccnc3c2cc(CN2CC=C(c4ncc(C(=O)N(C)C)cc4C(F)(F)F)CC2)n3C)c(=O)c1` [Example 1m69, N,N-Dimethyl-6-[1-[[1-methyl-4-[4-(methylamino)-2-oxo-1-pyridyl]pyrrolo[2,3-b]pyridin-2-yl]methyl]-3,6-dihydro-2H-pyridin-4-yl]-5-(trifluoromethyl)pyridine-3-carboxamide], the EC50 turned out to be 0.319 µM.

As to `[2H]C([2H])([2H])N(C(=O)c1ccc(C2CCN([C@@H](C)c3cc4c(-n5ccc(NC)cc5=O)ccnc4n3C)CC2)cc1)C([2H])([2H])[2H]` [Example 1m74, (S)—N,N-bis(methyl-d3)-4-(1-(1-(1-methyl-4-(4-(methylamino)-2-oxopyridin-1 (2H)-yl)-1H-pyrrolo[2,3-b]pyridin-2-yl)ethyl)piperidin-4-yl)benzamide], the EC50 was 0.0129 µM.

For the compound `CNC(=O)c1cc(C)c(C2=CCN(Cc3cc4c(-n5ccc(NC)cc5=O)ccnc4n3C)CC2)c(F)c1` [Example 1m75, 3-fluoro-N,5-dimethyl-4-(1-((1-methyl-4-(4-(methylamino)-2-oxopyridin-1 (2H)-yl)-1H-pyrrolo[2,3-b]pyridin-2-yl)methyl)-1,2,3,6-tetrahydropyridin-4-yl)benzamide], the EC50 amounted to 0.0178 µM.

Turning to `[2H]C([2H])([2H])N(C(=O)c1cc(C)c(C2=CCN(Cc3cc4c(-n5ccc(N)nc5=O)ccnc4n3C)CC2)c(F)c1)C([2H])([2H])[2H]` [Example 1m78, 4-(1-((4-(4-amino-2-oxopyrimidin-1 (2H)-yl)-1-methyl-1H-pyrrolo[2,3-b]pyridin-2-yl)methyl)-1,2,3,6-tetrahydropyridin-4-yl)-3-fluoro-5-methyl-N,N-bis(methyl-d3)benzamide], the EC50 was 0.0266 µM.

Take `[2H]C([2H])([2H])N(C(=O)c1ccc(C2CCN([C@@H](C)c3cc4c(-n5cc(F)c(N)nc5=O)ccnc4n3C)CC2)cc1)C([2H])([2H])[2H]` [Example 1m80, (S)-4-(1-(1-(4-(4-amino-5-fluoro-2-oxopyrimidin-1 (2H)-yl)-1-methyl-1H-pyrrolo[2,3-b]pyridin-2-yl)ethyl)piperidin-4-yl)-N,N-bis(methyl-d3)benzamide]: the EC50 was 0.133 µM.

As for `C[C@@H](c1cc2c(-n3ccc4c(c3=O)CCN4)ccnc2n1C)N1CCC(c2ccc(C(=O)N(C)C)cc2)CC1` [Example 1m82, (S)—N,N-dimethyl-4-(1-(1-(1-methyl-4-(4-oxo-1,2,3,4-tetrahydro-5H-pyrrolo[3,2-c]pyridin-5-yl)-1H-pyrrolo[2,3-b]pyridin-2-yl)ethyl)piperidin-4-yl)benzamide], the EC50 came to 0.0184 µM.

On to `Cc1cc(C(=O)N(C)C)ccc1C1=CCN([C@@H](C)c2cc3c(-n4ccc(N)c(F)c4=O)ccnc3n2C)CC1` [Example 1m84, (S)-4-(1-(1-(4-(4-amino-3-fluoro-2-oxopyridin-1 (2H)-yl)-1-methyl-1H-pyrrolo[2,3-b]pyridin-2-yl)ethyl)-1,2,3,6-tetrahydropyridin-4-yl)-N,N,3-trimethylbenzamide], for which the EC50 stood at 0.00369 µM.

In the case of `CNc1ccn(-c2ccnc3[nH]c(C(C)N4CC=C(c5c(C)cc(C(=O)N(C)C)cc5F)CC4)cc23)c(=O)c1` (stereo not drawn) [Example 1m85, 3-fluoro-N,N,5-trimethyl-4-(1-(1-(4-(4-(methylamino)-2-oxopyridin-1 (2H)-yl)-1H-pyrrolo[2,3-b]pyridin-2-yl)ethyl)-1,2,3,6-tetrahydropyridin-4-yl)benzamide], the EC50 stood at 0.128 µM.

Take `Cc1cc(C(=O)N(C)C)ccc1C1=CCN([C@H](C)c2cc3c(-n4ccc(N)c(F)c4=O)ccnc3n2C)CC1` [Example 1m86, (R)-4-(1-(1-(4-(4-amino-3-fluoro-2-oxopyridin-1 (2H)-yl)-1-methyl-1H-pyrrolo[2,3-b]pyridin-2-yl)ethyl)-1,2,3,6-tetrahydropyridin-4-yl)-N,N,3-trimethylbenzamide]: the EC50 worked out at 0.672 µM.

For `Cc1cc(C(=O)N(C)C)cc(F)c1C1=CCN(Cc2cc3c(-n4ccc(N)c(C)c4=O)ccnc3n2C)CC1` [Example 1m87, 4-(1-((4-(4-amino-3-methyl-2-oxopyridin-1 (2H)-yl)-1-methyl-1H-pyrrolo[2,3-b]pyridin-2-yl)methyl)-1,2,3,6-tetrahydropyridin-4-yl)-3-fluoro-N,N,5-trimethylbenzamide], the EC50 turned out to be 0.00455 µM.

In the case of `CNc1ccn(-c2ccnc3c2cc(CN2CC=C(c4c(C)cc(C(=O)N(C)C)cc4F)CC2)n3C)c(=O)n1` [Example 1m88, 3-fluoro-N,N,5-trimethyl-4-(1-((1-methyl-4-(4-(methylamino)-2-oxopyrimidin-1 (2H)-yl)-1H-pyrrolo[2,3-b]pyridin-2-yl)methyl)-1,2,3,6-tetrahydropyridin-4-yl)benzamide], the EC50 is 0.0048 µM.

Regarding `[2H]C([2H])([2H])N(C(=O)c1ccc(C2CCN([C@@H](C)c3cc4c(-n5ccc6[nH]ncc6c5=O)ccnc4n3C)CC2)cc1)C([2H])([2H])[2H]` [Example 1m89, (S)—N,N-bis(methyl-d3)-4-(1-(1-(1-methyl-4-(4-oxo-1,4-dihydro-5H-pyrazolo[4,3-c]pyridin-5-yl)-1H-pyrrolo[2,3-b]pyridin-2-yl)ethyl)piperidin-4-yl)benzamide], the EC50 was 0.00587 µM.

With `CNc1ccn(-c2ccnc3c2cc(CN2CC=C(c4c(F)cc(C(=O)N(C)C)cc4F)CC2)n3C)c(=O)c1` [Example 1m90, 3,5-difluoro-N,N-dimethyl-4-(1-((1-methyl-4-(4-(methylamino)-2-oxopyridin-1 (2H)-yl)-1H-pyrrolo[2,3-b]pyridin-2-yl)methyl)-1,2,3,6-tetrahydropyridin-4-yl)benzamide], the EC50 turned out to be 0.0288 µM.

In the case of `CNc1ccn(-c2ccnc3c2cc(CN2CCC(c4c(F)cc(C(=O)N(C)C)cc4F)CC2)n3C)c(=O)c1` [Example 1m91, 3,5-difluoro-N,N-dimethyl-4-(1-((1-methyl-4-(4-(methylamino)-2-oxopyridin-1 (2H)-yl)-1H-pyrrolo[2,3-b]pyridin-2-yl)methyl)piperidin-4-yl)benzamide], the EC50 was 0.0455 µM.

As for `[2H]C([2H])([2H])N(C(=O)c1cc(C)c(C2=CCN([C@@H](C)c3cc4c(-n5ccc(N)cc5=O)ccnc4n3C)CC2)c(F)c1)C([2H])([2H])[2H]` [Example 1m93, (S)-4-(1-(1-(4-(4-amino-2-oxopyridin-1 (2H)-yl)-1-methyl-1H-pyrrolo[2,3-b]pyridin-2-yl)ethyl)-1,2,3,6-tetrahydropyridin-4-yl)-3-fluoro-5-methyl-N,N-bis(methyl-d3)benzamide], the EC50 turned out to be 0.00376 µM.

Broadly, the Emax is the size of the effect at its maximum, as opposed to the concentration needed. For orientation: EC50 means the concentration giving half of the maximal effect.
